Test results reported in patent US8344028B2, “Gamma-amino-butyric acid derivatives as GABAB receptor ligands” (XenoPort, Inc., priority 2009, dated 2013).

Legend:
GABAB receptor = target: T1, GABAB receptor (Rattus norvegicus, UniProt Q9Z0U4); assay: [3H]CGP54626 rat brain GABAB receptor binding assay; conditions: [3H]CGP54626 rat brain binding assay
T1 construct: from tissue; host or cells: rat cerebral cortex membranes

[1] = target: T2, recombinant human GABABR1a2 (Homo sapiens, UniProt Q9UBS5); assay: cAMP assay for determining GABAB receptor agonist activity; format: cell-based; conditions: cells expressing recombinant human GABABR1a2; read-out: cAMP EC50
T2 construct: expressed in transfected cells; host or cells: HEK cells

[2] = target: T2, recombinant human GABABR1a2; assay: Ca2+ assay for determining GABAB receptor agonist activity; format: cell-based; conditions: cells expressing recombinant human GABABR1a2

T2 sequence (Q9UBS5 15-961 limits assumed): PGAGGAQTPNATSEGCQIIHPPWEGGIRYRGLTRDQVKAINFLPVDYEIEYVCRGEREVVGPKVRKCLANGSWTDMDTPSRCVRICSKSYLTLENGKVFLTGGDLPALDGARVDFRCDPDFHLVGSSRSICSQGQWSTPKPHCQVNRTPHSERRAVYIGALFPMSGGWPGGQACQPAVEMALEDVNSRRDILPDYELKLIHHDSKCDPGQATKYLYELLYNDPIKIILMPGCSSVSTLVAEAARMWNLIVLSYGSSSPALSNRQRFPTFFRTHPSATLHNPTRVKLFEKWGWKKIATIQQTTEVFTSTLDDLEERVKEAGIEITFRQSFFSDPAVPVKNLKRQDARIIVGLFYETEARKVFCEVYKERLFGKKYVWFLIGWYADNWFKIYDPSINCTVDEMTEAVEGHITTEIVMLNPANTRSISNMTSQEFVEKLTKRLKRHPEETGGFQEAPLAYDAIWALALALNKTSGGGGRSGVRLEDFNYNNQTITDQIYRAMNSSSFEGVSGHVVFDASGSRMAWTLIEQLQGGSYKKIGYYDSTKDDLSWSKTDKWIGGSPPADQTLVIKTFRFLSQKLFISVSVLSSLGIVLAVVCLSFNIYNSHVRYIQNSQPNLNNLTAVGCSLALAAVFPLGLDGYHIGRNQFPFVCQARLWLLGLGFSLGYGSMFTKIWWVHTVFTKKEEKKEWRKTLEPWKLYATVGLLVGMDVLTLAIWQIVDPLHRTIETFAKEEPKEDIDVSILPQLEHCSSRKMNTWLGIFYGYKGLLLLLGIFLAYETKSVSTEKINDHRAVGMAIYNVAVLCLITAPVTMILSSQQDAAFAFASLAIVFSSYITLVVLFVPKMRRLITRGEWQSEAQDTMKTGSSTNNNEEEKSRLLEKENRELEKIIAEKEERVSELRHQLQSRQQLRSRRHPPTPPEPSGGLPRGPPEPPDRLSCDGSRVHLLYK
T2 sequence (O75899 42-941 partner): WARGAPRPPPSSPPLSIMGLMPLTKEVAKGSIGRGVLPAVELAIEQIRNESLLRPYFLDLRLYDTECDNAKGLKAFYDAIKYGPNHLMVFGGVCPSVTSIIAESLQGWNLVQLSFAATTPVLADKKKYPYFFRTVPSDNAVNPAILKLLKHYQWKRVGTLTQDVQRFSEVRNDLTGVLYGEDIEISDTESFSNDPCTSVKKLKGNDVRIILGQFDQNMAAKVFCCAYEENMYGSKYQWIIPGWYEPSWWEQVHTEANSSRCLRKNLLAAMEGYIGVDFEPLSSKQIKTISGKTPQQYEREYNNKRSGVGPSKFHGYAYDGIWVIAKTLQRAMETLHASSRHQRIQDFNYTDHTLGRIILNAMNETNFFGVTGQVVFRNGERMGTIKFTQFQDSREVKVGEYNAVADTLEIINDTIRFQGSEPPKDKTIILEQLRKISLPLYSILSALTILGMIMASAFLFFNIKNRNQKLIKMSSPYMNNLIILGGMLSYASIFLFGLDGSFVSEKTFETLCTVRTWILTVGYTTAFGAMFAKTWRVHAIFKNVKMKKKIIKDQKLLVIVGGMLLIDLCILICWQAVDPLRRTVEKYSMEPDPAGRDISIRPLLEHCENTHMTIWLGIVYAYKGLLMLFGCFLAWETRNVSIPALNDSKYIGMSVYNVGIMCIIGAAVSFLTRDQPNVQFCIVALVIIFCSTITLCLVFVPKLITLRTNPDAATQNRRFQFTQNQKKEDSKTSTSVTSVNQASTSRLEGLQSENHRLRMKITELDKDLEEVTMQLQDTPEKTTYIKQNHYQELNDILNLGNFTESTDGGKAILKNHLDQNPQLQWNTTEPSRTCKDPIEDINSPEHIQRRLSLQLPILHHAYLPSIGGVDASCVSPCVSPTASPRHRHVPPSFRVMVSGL
T1 sequence (Q9Z0U4 20-960): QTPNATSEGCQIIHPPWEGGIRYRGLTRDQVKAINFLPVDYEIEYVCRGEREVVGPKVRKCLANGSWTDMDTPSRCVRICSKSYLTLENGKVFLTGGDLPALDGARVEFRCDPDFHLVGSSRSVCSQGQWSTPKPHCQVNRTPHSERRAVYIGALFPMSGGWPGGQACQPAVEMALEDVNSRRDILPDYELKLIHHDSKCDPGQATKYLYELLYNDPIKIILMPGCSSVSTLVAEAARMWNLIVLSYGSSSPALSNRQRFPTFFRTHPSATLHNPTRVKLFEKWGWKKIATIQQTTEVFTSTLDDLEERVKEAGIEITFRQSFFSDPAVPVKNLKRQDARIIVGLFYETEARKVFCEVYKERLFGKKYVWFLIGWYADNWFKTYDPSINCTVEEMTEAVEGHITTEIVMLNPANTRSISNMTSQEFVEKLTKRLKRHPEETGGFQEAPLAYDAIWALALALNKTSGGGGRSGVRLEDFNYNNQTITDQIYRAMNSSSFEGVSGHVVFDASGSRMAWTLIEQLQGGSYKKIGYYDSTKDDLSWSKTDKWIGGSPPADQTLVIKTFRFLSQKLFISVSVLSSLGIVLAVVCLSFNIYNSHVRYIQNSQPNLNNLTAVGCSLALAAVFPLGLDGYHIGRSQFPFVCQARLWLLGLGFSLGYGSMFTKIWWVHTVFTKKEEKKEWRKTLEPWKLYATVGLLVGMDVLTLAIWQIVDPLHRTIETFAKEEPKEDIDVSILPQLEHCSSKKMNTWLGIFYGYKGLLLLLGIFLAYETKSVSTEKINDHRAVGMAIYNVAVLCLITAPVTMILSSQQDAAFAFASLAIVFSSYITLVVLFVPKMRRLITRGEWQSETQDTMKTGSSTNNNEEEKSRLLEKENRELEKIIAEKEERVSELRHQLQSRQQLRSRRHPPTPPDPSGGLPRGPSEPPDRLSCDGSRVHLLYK
T1 sequence (O88871 41-940 partner): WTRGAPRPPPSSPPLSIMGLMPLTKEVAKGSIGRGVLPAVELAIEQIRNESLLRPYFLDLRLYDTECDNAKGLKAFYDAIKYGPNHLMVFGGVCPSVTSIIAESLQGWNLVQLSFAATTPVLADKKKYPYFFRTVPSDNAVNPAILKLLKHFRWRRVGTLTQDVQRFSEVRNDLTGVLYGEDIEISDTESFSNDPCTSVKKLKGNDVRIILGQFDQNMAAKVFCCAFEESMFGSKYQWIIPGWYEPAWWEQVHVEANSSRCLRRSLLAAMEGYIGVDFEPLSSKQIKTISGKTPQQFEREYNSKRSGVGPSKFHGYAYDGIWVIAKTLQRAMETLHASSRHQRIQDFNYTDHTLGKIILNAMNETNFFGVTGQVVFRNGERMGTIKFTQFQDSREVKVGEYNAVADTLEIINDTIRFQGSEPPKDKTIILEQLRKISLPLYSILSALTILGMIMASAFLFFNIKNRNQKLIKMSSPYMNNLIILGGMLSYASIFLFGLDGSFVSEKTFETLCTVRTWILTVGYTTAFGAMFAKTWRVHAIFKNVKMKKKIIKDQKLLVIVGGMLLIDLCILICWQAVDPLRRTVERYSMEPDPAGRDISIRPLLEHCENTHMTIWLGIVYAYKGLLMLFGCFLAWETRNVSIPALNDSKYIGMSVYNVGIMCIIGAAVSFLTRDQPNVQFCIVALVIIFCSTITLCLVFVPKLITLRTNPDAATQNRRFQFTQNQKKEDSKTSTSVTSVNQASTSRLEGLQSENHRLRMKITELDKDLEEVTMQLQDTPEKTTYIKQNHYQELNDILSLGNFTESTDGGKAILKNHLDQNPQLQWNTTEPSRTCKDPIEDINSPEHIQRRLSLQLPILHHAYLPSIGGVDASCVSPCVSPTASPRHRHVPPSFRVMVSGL

Work on `Cl.NC[C@H](CC(=O)O)c1ccc(Cl)c(OCc2ccncc2)c1` [Example 68, (3R)-4-Amino-3-[4-chloro-3-(4-pyridylmethoxy)phenyl]butanoic acid hydrochloride] yielded an IC50 (GABAB receptor) of less than 25000 nM, an EC50 [1] of less than 100 nM and an EC50 [2] of less than 700 nM.
